Read-outs that look alike come from different tables or passages of the source.
Key:
[1] = test system: HCC1954 breast cancer cells; assay: Payload cell viability dose response (CellTiter-Glo 2.0), HCC1954 (Example 4); assay type: cell-based, human; conditions: for GI50: Homo sapiens
Method: (§1) Cell viability dose response was determined for exemplary payload compounds in HER2-amplified HCC1954 breast cancer cells and NCI-N87 gastric cancer cells.
(§2) HCC1954 (American Type Culture Collection (ATCC)) breast ductal carcinoma or NCI-N87 (ATCC) gastric carcinoma cells were plated at 500 cells/well in flat bottom 384-well tissue culture plates (Corning) in a total volume of 30 μL tissue culture medium supplemented with 10% fetal bovine serum (ThermoFisher Scientific). Cells were treated with a 4-fold serial dilution of compound from 10000 nM to 0.01 nM. Each concentration was tested in triplicate. At the time of treatment, a plate of untreated cells was evaluated using CellTiter-Glo® 2.0 Luminescent Cell Viability Assay according to the manufacturer's recommendations (Promega; #G9241). CellTiter-Glo® 2.0 reagent was added to the medium, incubated, and assayed on an EnVision Multilabel Reader (PerkinElmer). Values represent time zero (T0). The number of viable cells following 72 (T72) or 144 hours (T144) of compound treatment was also determined using the CellTiter-Glo®2.0 Luminescent Cell Viability Assay. Using the luminescence value at time zero (T0), DMSO control growth (C), and test growth in the presence of compound (T72 or T144), the percentage growth was calculated at each of the compound concentrations levels. Percentage growth inhibition was calculated as (e.g.): [(T144−T0)/(C−T0)]×100 for concentrations for which T144>/=T0 or [(T144−T0)/T0]×100 for concentrations for which T144<T0. The dose response curve plots were generated using Prism 8 (Graphpad) and fit using nonlinear regression analysis and the log(inhibitor) versus response-variable slope (four parameters).

[2] = test system: SLC25A19 mature transcript; assay: In-cell splicing PD assay, NCI-N87; assay type: cell-based; conditions: Homo sapiens, NCI-N87, 6 h
Method: (§3) 4.1.2 In-Cell Splicing PD Assay
(§4) Splicing of the SLC25A19 mature transcript was also examined in HCC1954 and NCI-N87 cells treated with increasing concentrations of exemplary payload compounds.
(§5) HCC1954 or NCI-N87 cells (ATCC) were plated in RPM1+10% FBS media (ATCC) at 1000 cells per well at 20 μL per well. Cells were treated with compounds in a 4-fold dilution dose-response. After 6 hours, cells were PBS washed and lysed with 30 μL of CL buffer (IgePal CA-630, 5M NaCl, 1M Tris HCl 1M pH 7.4 in water) containing 25 μL/mL of RNAsin (Promega) and incubated for 20 min at RT on a rocker. Resulting mixture (1 μL) was used to assess splicing modulation in a Taqman Fast Virus 1-Step MasterMix (Applied Biosystems) reverse transcription PCR reaction with the following Taqman primers according to the manufacturer's recommendations: SLC25A19 (Invitrogen, Hs00222265_m1); RPLPO (Invitrogen, Hs99999902_m1).

[3] = test system: SLC25A19 mature transcript; assay: In-cell splicing PD assay, HCC1954; assay type: cell-based; conditions: Homo sapiens, HCC1954, 6 h
Method: as §3, §4, §5

[4] = test system: NCI-N87 gastric cancer cells; assay: Payload cell viability dose response (CellTiter-Glo 2.0), NCI-N87 (Example 4); assay type: cell-based, human; conditions: for GI50: Homo sapiens
Method: as §1, §2

[5] = HCC1954, 72 h, read-out: CTG 72 h GI50
[6] = HCC1954, 144 h, read-out: CTG 144 h GI50
[7] = NCI-N87, 72 h, read-out: CTG 72 h GI50
[8] = NCI-N87, 144 h, read-out: CTG 144 h GI50

Compound	CTG 72 h LD50 ([1]; HCC1954, 72 h) [µM]	CTG 72 h Rmin ([1]; HCC1954, 72 h) [%]	CTG 144 h LD50 ([1]; HCC1954, 144 h) [nM]	CTG 144 h Rm in ([1]; HCC1954, 144 h) [%]	GI50 [1, 5] [nM]	GI50 [1, 6] [nM]	IC50 [2] [nM]	IC50 [3] [nM]	GI50 [4, 7] [nM]	GI50 [4, 8] [nM]	CTG 72 h LD50 ([4]; NCI-N87, 72 h) [µM]	CTG 72 h Rmin ([4]; NCI-N87, 72 h) [%]	CTG 144 h LD50 ([4]; NCI-N87, 144 h) [nM]	CTG 144 h Rmin ([4]; NCI-N87, 144 h) [%]
COC(=O)[C@@H](CCCCNC(=O)C[C@H]1CC[C@H](C)[C@@H](/C(C)=C/C=C/[C@@H](C)C[C@@]2(C)O[C@@H]2[C@H](C)[C@@H](OC)[C@@H](C)O)O1)NC(=O)N1CCN(C)CC1 [Compound H20]	> 10	−44.802	98.861	−94.301	40.4	36.4	56.2	51.4	29.4	21	> 10	−62.676	532.734	−94.539
CO[C@H]([C@@H](C)[C@H]1O[C@]1(C)C[C@H](C)/C=C/C=C(\C)[C@H]1O[C@@H](CNC(=O)[C@H]2CC[C@H](COC(=O)N3CCN(C)CC3)CC2)CC[C@@H]1C)[C@@H](C)O [Compound H22]	> 10	82.229	> 10000	71.431	> 10000	> 10000	> 10000	> 10000	> 10000	5100	> 10	48.181	> 10000	29.113
COC(=O)[C@H](CCNC(=O)N1CCN(C)CC1)NC(=O)C[C@H]1CC[C@H](C)[C@@H](/C(C)=C/C=C/[C@@H](C)C[C@@]2(C)O[C@@H]2[C@H](C)[C@@H](OC)[C@@H](C)O)O1 [Compound H16]	> 10	−65.968	22.316	−98.779	11.8	8.98	8.55	16.7	6.76	3.62	> 10	−21.717	98.186	−86.757
CO[C@H]([C@@H](C)[C@H]1O[C@]1(C)C[C@H](C)/C=C/C=C(\C)[C@H]1O[C@@H](CC(=O)N[C@H](CCCOC(=O)N2CCN(C)CC2)C(=O)O)CC[C@@H]1C)[C@@H](C)O [Compound H18]	> 10	−20.785	1606.048	−88.195	624	436	464	1680	300	313	> 10	−12.297	3937.618	−60.543
CO[C@H]([C@@H](C)[C@H]1O[C@]1(C)C[C@H](C)/C=C/C=C(\C)[C@H]1O[C@@H](CC(=O)N[C@@H](CCCOC(=O)N2CCN(C)CC2)C(=O)O)CC[C@@H]1C)[C@@H](C)O [Compound H17]	> 10	−48.872	275.218	−96.54	139	126	114	135	47	81.3	> 10	−15.164	912.895	−65.458
CO[C@H]([C@@H](C)[C@H]1O[C@]1(C)C[C@H](C)/C=C/C=C(\C)[C@H]1O[C@@H](CC(=O)N[C@@H](COC(=O)N2CCN(C)CC2)C(=O)O)CC[C@@H]1C)[C@@H](C)O [Compound H13]	> 10	−54.164	690.614	−97.151	190	210	108	320	53.9	115	> 10	−15.164	2784.969	−80.613
CO[C@H]([C@@H](C)[C@H]1O[C@]1(C)C[C@H](C)/C=C/C=C(\C)[C@H]1O[C@@H](CC(=O)NCCCC[C@@H](NC(=O)N2CCN(C)CC2)C(=O)O)CC[C@@H]1C)[C@@H](C)O [Compound H19]	> 10	32.813	> 10000	27.17	8990	7930	> 10000	> 10000	> 10000	3270	> 10	44.396	> 10000	17.442
CO[C@H]([C@@H](C)[C@H]1O[C@]1(C)C[C@H](C)/C=C/C=C(\C)[C@H]1O[C@@H](CC(=O)N[C@@H](CCNC(=O)N2CCN(C)CC2)C(=O)O)CC[C@@H]1C)[C@@H](C)O [Compound H15]	> 10	−44.191	31.77	−95.522	18.1	11.7	15.4	37.1	6	3.5	> 10	−18.031	106.186	−82.661
COC(=O)[C@@H](CCCCNC(=O)N1CCN(C)CC1)NC(=O)C[C@H]1CC[C@H](C)[C@@H](/C(C)=C/C=C/[C@@H](C)C[C@@]2(C)O[C@@H]2[C@H](C)[C@@H](OC)[C@@H](C)O)O1 [Compound H21]	> 10	−54.164	127.893	−97.761	81.4	50	87.5	157	35.5	40.9	> 10	−7.791	654.736	−86.347

From patent US12514928B2, “Herboxidiene antibody-drug conjugates and methods of use” (Eisai R&D Management Co., Ltd., priority 2018, dated 2026)
